According to ChEMBL document CHEMBL1127889 (Bioorg Med Chem Lett, 1994):
Each block holds one molecule with its values, some of them ahead of it.

Legend:
[1] = biological target: T1, Endothelin-converting enzyme 1 (Bos taurus, UniProt P42891); test: Inhibition of Endothelin-converting enzyme (ECE) from microsomal fractions of bovine cultured endothelial cells; format: cell-based, Endothelial cell
T1 sequence (P42891 whole entry): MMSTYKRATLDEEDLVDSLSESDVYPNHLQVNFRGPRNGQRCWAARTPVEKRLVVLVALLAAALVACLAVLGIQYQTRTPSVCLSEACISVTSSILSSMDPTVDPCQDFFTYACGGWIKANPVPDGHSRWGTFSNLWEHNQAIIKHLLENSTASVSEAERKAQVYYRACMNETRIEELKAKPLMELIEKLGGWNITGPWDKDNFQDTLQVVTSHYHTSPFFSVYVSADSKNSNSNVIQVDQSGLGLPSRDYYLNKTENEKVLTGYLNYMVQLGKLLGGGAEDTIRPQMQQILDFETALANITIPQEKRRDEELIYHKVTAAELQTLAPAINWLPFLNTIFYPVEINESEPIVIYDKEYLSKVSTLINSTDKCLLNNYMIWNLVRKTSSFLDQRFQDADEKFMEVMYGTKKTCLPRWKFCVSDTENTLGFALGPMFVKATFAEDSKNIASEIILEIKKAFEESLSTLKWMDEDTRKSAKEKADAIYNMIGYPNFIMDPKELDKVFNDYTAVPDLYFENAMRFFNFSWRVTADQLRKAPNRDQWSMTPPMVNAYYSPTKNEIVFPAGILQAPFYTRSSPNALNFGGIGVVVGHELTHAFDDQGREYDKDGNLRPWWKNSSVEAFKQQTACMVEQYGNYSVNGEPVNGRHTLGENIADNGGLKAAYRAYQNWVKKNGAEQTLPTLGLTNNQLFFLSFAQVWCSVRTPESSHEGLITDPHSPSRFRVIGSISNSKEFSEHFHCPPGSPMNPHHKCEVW

[2] = biological target: T2, Neprilysin (Rattus norvegicus, UniProt P07861); test: Inhibitory activity against neutral endopeptidase (NEP)prepared from microsomal fractions of rat small intestine
T2 sequence (P07861 whole entry): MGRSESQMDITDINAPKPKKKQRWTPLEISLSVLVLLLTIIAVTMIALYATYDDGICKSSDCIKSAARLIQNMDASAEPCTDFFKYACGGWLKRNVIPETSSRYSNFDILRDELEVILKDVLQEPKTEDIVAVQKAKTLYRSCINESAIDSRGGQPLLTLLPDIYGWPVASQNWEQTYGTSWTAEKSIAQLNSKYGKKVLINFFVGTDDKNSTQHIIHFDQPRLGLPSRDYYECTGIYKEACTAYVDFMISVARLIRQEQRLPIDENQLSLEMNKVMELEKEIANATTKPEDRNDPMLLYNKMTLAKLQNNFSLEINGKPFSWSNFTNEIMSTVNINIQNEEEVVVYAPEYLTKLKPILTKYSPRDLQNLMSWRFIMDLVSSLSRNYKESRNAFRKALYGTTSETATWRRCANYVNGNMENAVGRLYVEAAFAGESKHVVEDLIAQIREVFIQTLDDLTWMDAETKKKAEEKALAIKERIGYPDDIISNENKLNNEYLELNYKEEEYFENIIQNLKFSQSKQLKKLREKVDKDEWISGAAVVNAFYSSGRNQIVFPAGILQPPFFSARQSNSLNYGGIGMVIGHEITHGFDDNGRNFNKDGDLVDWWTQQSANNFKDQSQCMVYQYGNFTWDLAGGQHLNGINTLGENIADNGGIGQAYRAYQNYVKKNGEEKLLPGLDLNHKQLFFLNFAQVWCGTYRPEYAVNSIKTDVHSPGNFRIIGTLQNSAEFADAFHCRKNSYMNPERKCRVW

[3] = biological target: T3, Endothelin-converting enzyme 1 (Bos taurus) (UniProt P42891); test: Inhibitory activity against Endothelin-converting enzyme (ECE) prepared from the microsomal fractions of bovine cultured endothelial cells at a concentration of 100 uM; format: cell-based; conditions: Endothelial cell
T3 sequence (whole entry): T1 sequence (P42891 whole entry)

[4] = Selectivity ratio against ECE/NEP
[5] = biological target: T3, Endothelin-converting enzyme 1 (Bos taurus); test: Inhibitory activity against Endothelin converting enzyme (ECE) prepared from the microsomal fractions of bovine cultured endothelial cells at a concentration of 100 uM; format: cell-based; conditions: Endothelial cell

Compound: CC(C)C[C@H](NP(=O)(O)OC1O[C@@H](C)[C@H](O)[C@@H](O)[C@H]1O)C(=O)N[C@@H](Cc1c[nH]c2ccccc12)C(=O)O (single isomer, unassigned) [PHOSPHORAMIDON]
IC50 [2]: 0.0042 µM

Compound: CCCC(N[C@@H](CC(C)C)C(=O)N[C@@H](Cc1c[nH]c2ccccc12)C(=O)O)P(=O)(O)O (stereo partly specified)
IC50 [1]: 15 µM
IC50 [2]: 0.55 µM
Ratio [4]: 37

Compound: CC(C)C[C@H](NCP(=O)(O)O)C(=O)N[C@@H](Cc1c[nH]c2ccccc12)C(=O)O
IC50 [1]: 3.4 µM
IC50 [2]: 0.024 µM
Ratio [4]: 7.1

Compound: CC(C)[C@H](NP(=O)(O)O)C(=O)N[C@@H](CC(N)=O)C(=O)O
inhibition [3]: 14%

Compound: CC(C)C[C@H](NC(CCc1c[nH]c2ccccc12)P(=O)(O)O)C(=O)N[C@@H](Cc1c[nH]c2ccccc12)C(=O)O (stereo partly specified)
IC50 [1]: 1.9 µM
IC50 [2]: 0.56 µM
Ratio [4]: 290

Compound: CC(C)C[C@H](NC(CCc1cccc2ccccc12)P(=O)(O)O)C(=O)N[C@@H](Cc1c[nH]c2ccccc12)C(=O)O (stereo partly specified)
IC50 [1]: 0.26 µM
inhibition [5]: 31%
IC50 [2]: 0.14 µM
Ratio [4]: 540

Second part, the molecule after the results:

IC50 [1]: 1.5 µM
Compound: CCCC[C@H](NP(=O)(O)O)C(=O)N[C@@H](Cc1c[nH]c2ccccc12)C(=O)O

IC50 [1]: 0.96 µM
Compound: CC(C)C[C@H](NP(=O)(O)O)C(=O)N[C@@H](Cc1c[nH]c2ccccc12)C(=O)O

IC50 [1]: 3 µM
IC50 [2]: 0.13 µM
inhibition [3]: 42%
Ratio [4]: 43
Compound: CC(C)C[C@H](NC(CCc1ccc(O)cc1)P(=O)(O)O)C(=O)N[C@@H](Cc1c[nH]c2ccccc12)C(=O)O (stereo partly specified)

IC50 [1]: 7.4 µM
Compound: CC(C)C[C@H](NP(=O)(O)O)C(=O)N[C@@H](Cc1cccc2ccccc12)C(=O)O

IC50 [1]: 1.1 µM
IC50 [2]: 0.13 µM
inhibition [3]: 33%
Ratio [4]: 120
Compound: CC(C)C[C@H](NC(CCc1ccccc1)P(=O)(O)O)C(=O)N[C@@H](Cc1c[nH]c2ccccc12)C(=O)O (stereo partly specified)

IC50 [1]: 7.1 µM
IC50 [2]: 1.1 µM
inhibition [3]: 38%
Ratio [4]: 150
Compound: CC(C)C[C@H](NC(CCCc1ccccc1)P(=O)(O)O)C(=O)N[C@@H](Cc1c[nH]c2ccccc12)C(=O)O (stereo partly specified)

IC50 [1]: 2.8 µM
Compound: CC[C@@H](C)[C@H](NP(=O)(O)O)C(=O)N[C@@H](Cc1c[nH]c2ccccc12)C(=O)O
